Reference: ChEMBL document CHEMBL1201862, “PubChem BioAssay data set” (2004)
Counter-ions that a name gives are not always drawn. Activity calls are given as the source filed them.

Key:
[1] = molecular target: Induced myeloid leukemia cell differentiation protein Mcl-1 (Homo sapiens, UniProt Q07820); format: functional
[2] = molecular target: T1, Mannose-6-phosphate isomerase (Homo sapiens, UniProt P34949); experiment: human PMI inhibitors, high substrate, primary screen, biochemical, fluorescence intensity, high mannose 6-phosphate (AID 1220)
T1 sequence (P34949 whole entry): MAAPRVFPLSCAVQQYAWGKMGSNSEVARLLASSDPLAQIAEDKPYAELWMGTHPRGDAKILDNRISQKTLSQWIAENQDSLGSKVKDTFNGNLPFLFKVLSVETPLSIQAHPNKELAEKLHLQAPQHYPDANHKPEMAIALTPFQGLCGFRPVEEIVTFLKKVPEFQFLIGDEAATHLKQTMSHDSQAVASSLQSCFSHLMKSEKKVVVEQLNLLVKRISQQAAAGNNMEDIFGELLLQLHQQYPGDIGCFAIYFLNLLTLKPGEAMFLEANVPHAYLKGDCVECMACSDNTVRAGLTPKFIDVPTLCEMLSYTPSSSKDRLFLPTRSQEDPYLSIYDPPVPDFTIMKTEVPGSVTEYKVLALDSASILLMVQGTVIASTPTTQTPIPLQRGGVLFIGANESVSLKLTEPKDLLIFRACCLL

Prothrombin = Prothrombin (Homo sapiens, UniProt P00734); experiment: Thrombin 1536 HTS Dose Response Confirmation. [Related pubchem assays: 1046 (Thrombin 1536 HTS; hits were confirmed in this assay)]; format: functional
Caspase-6 = molecular target: T2, Caspase-6 (Homo sapiens, UniProt P55212); experiment: human caspase-6 inhibitors, dose response, biochemical, VEID-R110 fluorescence, cherry-pick (AID 720632)
T2 sequence (P55212 whole entry): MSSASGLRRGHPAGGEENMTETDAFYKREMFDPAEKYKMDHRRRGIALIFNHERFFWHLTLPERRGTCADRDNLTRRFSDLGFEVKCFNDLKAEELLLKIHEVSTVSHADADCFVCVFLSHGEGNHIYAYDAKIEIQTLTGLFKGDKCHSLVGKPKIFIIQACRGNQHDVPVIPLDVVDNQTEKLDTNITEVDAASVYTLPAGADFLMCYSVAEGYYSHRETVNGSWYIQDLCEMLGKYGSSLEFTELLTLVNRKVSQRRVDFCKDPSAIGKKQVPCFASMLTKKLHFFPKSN

[3] = molecular target: T3, 1-phosphatidylinositol 4,5-bisphosphate phosphodiesterase beta-3 (Homo sapiens, UniProt Q01970); experiment: Fluorescence-based biochemical high throughput dose response assay to identify inhibitors of phospholipase C isozymes (PLC-B3).
T3 sequence (Q01970 whole entry): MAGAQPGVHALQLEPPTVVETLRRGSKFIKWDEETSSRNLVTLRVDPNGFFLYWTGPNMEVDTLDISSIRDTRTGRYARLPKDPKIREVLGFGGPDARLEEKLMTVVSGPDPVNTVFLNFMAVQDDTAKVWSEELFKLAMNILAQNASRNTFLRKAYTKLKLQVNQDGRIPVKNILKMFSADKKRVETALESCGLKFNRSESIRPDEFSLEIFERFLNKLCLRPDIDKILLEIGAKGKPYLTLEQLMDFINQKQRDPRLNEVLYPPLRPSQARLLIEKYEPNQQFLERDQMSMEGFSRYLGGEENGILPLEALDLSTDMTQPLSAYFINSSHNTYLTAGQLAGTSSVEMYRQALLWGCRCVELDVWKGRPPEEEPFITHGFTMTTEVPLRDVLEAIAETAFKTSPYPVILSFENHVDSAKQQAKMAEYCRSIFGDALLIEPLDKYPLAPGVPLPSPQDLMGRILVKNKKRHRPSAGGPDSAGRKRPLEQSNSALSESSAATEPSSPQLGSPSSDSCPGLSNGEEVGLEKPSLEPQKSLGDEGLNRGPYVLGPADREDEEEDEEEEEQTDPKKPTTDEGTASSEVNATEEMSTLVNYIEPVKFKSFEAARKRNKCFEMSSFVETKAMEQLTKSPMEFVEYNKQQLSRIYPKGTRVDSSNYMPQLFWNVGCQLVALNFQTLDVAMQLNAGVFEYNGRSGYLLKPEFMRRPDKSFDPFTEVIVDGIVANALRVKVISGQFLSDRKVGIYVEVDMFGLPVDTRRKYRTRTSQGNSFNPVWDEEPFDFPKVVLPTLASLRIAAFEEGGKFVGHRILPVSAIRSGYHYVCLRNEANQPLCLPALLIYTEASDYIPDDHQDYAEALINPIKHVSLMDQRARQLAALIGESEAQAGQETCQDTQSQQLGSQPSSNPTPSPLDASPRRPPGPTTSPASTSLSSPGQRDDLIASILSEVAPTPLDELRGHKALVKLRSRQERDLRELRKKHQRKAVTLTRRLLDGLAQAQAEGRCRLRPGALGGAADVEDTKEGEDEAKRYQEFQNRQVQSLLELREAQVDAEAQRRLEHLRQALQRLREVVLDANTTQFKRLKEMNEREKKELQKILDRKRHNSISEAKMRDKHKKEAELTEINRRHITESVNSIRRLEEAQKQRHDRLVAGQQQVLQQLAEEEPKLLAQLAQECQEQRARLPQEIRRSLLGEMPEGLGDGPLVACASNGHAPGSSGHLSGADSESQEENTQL

[4] = molecular target: T4, 1-phosphatidylinositol 4,5-bisphosphate phosphodiesterase gamma-1 (Homo sapiens, UniProt P19174); experiment: Counterscreen for inhibitors of phospholipase C isozymes (PLC-B3): Fluorescence-based biochemical high throughput dose response assay to identify inhibitors of phospholipase C isozymes (PLC-gamma1).
T4 sequence (P19174 whole entry): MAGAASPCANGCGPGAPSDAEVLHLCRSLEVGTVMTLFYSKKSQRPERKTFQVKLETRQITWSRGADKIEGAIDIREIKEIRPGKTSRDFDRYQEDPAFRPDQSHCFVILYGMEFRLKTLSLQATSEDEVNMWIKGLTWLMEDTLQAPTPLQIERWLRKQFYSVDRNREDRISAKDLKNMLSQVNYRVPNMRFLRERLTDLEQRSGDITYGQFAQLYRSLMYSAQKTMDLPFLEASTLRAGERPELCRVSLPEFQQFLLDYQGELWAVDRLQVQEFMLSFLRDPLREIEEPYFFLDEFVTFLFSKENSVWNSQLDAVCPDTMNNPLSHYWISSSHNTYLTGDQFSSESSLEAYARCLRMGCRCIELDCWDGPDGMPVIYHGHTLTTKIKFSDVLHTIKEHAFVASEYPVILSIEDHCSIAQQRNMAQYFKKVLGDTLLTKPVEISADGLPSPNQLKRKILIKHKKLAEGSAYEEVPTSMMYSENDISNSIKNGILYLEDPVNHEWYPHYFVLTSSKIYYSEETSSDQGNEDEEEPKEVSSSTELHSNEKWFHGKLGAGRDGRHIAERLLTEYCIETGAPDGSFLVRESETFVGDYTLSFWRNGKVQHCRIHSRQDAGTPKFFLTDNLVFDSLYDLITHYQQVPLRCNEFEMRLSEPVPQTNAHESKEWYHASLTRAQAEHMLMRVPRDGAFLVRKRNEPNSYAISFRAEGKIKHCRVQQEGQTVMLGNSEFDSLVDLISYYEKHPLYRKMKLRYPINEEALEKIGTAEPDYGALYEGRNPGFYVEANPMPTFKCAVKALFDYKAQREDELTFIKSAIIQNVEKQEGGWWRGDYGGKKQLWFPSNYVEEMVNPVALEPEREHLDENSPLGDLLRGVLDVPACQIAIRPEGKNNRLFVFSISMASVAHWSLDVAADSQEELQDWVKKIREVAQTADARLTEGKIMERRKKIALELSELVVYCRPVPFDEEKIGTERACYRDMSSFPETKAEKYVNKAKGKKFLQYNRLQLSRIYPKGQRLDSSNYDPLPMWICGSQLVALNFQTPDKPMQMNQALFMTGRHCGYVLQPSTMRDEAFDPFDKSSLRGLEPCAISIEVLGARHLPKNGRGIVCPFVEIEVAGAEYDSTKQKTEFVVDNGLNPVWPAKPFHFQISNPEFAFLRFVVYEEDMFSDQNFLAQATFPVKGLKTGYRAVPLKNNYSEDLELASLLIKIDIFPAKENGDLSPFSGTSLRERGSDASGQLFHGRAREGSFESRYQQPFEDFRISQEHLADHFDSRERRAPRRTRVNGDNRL

Cytochrome P450 2D6 = Cytochrome P450 2D6 (Homo sapiens, UniProt P10635);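 also: CYP2D6 member of a cytochrome P450 panel assay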
[5] = cytotoxicity in HPDE-C7 cells, cell-based, fluorescence, HTS (AID 430); format: functional; settings: Homo sapiens
[6] = cytotoxicity in KRAS-transformed pancreatic duct cells, primary screen, cell-based, fluorescence, HTS (AID 431); format: functional; settings: Homo sapiens;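 also: cell line used: HPDE-C7K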
[7] = inhibitors of intracellular T. cruzi replication, confirmation, NIH3T3 host cells, beta-gal luminescence (AID 2044); format: functional, cell-based;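 also: intracellular parasites grown in NIH/3T3 mouse fibroblasts as host cells; luminescent beta-galactosidase reporter signal from transgenic T. cruzi replicating inside host cells; inhibitors lower the luminescence signal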
Nonstructural protein 1 = Nonstructural protein 1 (Influenza A virus, UniProt Q194T2); format: functional, Influenza A virus (A/California/07/2009(H1N1))
[8] = cytotoxicity toward NIH3T3 fibroblasts, dose response, counter-screen, cell-based, ATP luminescence, mouse fibroblasts (AID 2010); format: functional;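 also: cells exposed to compound for about 90 hours before reading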
INS1 = experiment: beta cell apoptosis inhibitors, cytokine rescue, dose response, luminescence, retest (AID 449756); format: functional, cell-based; settings: Rattus norvegicus;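 also: cell death triggered by IL-1 beta plus TNF-alpha plus IFN-gamma mixture; protective hits raise ATP signal compared with cytokine alone wells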
[9] = NIH-3T3 fibroblast cytotoxicity, dose response, cytotoxicity control, cell-based, fluorescence, Alamar Blue, secondary assay (AID 2327); format: functional;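 also: NIH-3T3 mouse fibroblasts cultured with fluconazole at 8 µg/mL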
[10] = C. albicans growth with fluconazole, confirmation, fluorescence, retest (AID 2467); format: functional, cell-based
[11] = molecular target: Voltage-dependent T-type calcium channel subunit alpha-1H (Homo sapiens, UniProt O95180); format: functional;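 also: channel activity triggered by adding a high calcium stimulation buffer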
[12] = Luminescence Cell-Based Dose Retest to Confirm Inhibitors of Cancer Stem Cells. [Related pubchem assays (depositor defined):AID2717, AID2721]; format: functional; settings: Homo sapiens
Streptococcus = experiment: Streptococcus pyogenes growth inhibition counter-screen, dose response, counter-screen for streptokinase expression inhibitor project, luminescence, BacTiter-Glo, strain UMAA2166 (AID 2477); format: functional, organism-based
Streptokinase A = molecular target: T5, Streptokinase A (Streptococcus pyogenes serotype M1, UniProt P10520); experiment: Absorbance Microorganism-Based Dose Response Follow up to Identify Inhibitors of Streptokinase Expression. [Related pubchem assays: 1677 (Project Summary), 1915, 1914, 1902 (Retest at Dose), 1900 (Counter Screen), 1662 (Primary HTS)]; format: functional, Streptococcus pyogenes M1 GAS
T5 sequence (P10520 whole entry): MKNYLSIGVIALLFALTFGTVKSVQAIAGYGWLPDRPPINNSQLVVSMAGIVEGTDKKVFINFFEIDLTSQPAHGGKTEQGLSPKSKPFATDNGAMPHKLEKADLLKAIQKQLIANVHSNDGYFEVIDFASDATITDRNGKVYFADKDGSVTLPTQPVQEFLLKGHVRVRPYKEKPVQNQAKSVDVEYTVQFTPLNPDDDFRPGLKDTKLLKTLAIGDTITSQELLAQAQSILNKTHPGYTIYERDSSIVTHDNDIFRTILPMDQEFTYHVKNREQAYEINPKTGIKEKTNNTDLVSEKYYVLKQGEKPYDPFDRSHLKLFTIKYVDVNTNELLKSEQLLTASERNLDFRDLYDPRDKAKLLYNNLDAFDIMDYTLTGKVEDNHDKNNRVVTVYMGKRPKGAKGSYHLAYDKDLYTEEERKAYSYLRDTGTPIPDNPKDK

Sequence of Induced myeloid leukemia cell differentiation protein Mcl-1 (Q07820 whole entry): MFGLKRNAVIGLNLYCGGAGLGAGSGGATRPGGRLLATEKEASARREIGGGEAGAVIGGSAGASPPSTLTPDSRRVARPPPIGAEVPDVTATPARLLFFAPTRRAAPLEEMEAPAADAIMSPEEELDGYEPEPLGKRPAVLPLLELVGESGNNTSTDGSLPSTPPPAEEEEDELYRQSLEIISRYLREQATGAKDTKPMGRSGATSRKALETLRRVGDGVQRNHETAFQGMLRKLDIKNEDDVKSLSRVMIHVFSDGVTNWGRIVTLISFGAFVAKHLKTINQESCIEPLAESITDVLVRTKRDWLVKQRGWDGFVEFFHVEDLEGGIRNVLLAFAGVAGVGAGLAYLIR
Sequence of Cytochrome P450 2D6 (P10635 whole entry): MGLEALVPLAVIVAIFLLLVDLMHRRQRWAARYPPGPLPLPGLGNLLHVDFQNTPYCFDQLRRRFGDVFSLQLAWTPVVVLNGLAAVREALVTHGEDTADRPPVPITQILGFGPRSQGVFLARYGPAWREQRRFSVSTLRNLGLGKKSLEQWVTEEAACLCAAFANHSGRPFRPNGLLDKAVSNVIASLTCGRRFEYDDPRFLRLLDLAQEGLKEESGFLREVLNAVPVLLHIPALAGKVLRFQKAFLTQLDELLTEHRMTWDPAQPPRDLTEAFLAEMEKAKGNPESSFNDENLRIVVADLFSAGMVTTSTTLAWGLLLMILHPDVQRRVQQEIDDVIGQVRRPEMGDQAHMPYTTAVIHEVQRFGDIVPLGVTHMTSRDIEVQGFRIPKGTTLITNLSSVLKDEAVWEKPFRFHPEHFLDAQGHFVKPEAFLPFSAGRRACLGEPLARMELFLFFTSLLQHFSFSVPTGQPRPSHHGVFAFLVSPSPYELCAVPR
Sequence of Voltage-dependent T-type calcium channel subunit alpha-1H (O95180 whole entry): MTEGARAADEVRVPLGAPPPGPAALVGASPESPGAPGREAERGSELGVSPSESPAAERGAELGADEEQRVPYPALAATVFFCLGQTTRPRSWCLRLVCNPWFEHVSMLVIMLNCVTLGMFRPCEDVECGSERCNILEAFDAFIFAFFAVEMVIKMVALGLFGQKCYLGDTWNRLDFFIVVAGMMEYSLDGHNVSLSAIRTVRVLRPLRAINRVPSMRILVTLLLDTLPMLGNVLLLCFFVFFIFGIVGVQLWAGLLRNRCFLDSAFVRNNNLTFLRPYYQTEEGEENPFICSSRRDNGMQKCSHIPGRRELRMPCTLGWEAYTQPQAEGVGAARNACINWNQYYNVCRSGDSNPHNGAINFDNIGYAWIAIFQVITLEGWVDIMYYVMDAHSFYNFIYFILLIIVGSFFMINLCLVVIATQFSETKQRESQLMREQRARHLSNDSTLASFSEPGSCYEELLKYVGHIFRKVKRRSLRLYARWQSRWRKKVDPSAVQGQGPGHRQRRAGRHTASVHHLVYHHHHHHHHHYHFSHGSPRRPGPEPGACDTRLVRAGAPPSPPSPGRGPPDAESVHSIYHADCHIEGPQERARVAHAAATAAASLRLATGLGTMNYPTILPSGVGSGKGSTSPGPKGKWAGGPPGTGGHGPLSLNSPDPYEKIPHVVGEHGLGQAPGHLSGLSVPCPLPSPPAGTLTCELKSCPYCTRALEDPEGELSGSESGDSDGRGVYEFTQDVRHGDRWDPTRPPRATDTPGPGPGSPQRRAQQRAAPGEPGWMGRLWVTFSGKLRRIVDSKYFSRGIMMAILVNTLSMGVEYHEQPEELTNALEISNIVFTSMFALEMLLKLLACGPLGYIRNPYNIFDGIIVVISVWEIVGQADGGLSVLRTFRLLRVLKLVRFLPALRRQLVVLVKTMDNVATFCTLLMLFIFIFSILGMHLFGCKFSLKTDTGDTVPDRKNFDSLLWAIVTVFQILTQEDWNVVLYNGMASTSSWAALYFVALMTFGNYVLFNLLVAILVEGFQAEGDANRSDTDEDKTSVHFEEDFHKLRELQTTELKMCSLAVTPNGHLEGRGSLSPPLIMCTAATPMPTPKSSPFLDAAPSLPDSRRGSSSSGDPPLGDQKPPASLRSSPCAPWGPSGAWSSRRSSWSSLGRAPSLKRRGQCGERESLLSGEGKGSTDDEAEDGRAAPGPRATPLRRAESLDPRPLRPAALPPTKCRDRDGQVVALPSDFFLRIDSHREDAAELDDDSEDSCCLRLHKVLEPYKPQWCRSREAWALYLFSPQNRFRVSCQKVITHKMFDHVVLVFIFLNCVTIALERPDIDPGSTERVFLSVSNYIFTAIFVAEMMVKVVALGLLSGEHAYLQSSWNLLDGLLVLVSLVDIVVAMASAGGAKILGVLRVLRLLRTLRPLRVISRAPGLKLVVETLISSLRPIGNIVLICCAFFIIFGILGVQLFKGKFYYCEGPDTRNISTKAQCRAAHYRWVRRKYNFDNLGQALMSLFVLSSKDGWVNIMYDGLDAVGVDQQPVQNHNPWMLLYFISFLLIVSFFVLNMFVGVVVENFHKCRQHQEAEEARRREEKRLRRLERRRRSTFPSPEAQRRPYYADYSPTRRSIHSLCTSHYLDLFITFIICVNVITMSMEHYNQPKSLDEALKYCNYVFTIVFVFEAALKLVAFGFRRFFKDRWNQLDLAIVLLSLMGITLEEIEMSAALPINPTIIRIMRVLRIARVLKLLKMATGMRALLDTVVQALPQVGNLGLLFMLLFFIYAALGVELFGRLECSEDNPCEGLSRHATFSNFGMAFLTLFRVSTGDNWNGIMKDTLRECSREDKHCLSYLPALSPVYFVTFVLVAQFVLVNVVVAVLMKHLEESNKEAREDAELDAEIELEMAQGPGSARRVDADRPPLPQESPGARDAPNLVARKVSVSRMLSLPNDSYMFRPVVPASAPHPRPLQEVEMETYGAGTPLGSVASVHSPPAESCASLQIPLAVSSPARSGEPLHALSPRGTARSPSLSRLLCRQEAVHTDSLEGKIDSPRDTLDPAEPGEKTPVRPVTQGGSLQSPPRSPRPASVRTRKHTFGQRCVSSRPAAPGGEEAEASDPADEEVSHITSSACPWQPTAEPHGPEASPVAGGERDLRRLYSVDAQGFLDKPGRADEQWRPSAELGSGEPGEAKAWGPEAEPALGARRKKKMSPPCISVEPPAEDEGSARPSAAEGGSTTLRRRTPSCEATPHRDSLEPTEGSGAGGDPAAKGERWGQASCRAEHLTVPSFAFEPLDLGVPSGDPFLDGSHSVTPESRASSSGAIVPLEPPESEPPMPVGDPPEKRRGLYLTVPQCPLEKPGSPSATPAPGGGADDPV
Sequence of Nonstructural protein 1 (Q194T2 whole entry): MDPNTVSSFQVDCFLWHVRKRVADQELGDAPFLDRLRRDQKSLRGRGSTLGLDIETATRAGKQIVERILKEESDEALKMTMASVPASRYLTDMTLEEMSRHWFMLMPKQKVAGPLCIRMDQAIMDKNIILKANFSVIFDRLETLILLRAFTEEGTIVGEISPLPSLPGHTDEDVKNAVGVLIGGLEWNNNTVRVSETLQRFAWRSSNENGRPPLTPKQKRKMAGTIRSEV

With `COc1ccc(N2CCC(CNS(=O)(=O)c3cccc(C(F)(F)F)c3)C2)cc1` (stereo not given) the IC50 [1] was > 54 µM (active) and the IC50 [2] was > 50 µM (not active).
In the case of `Cc1cc(C(=O)OCC(=O)c2cccc([N+](=O)[O-])c2)c2cccc(C)c2n1`, the IC50 (Prothrombin) is reported as > 50 µM (inconclusive).
For `O=[N+]([O-])c1cccc(NS(=O)(=O)c2ccc(-c3ccc(O)nn3)s2)c1`, the AC50 (Caspase-6) was 40.3 µM (active).
With `O=C(Cc1cccs1)N1CCC(c2nc3c(nnn3Cc3ccccc3Cl)c(=O)[nH]2)CC1` the IC50 [3] was > 122 µM (inactive), the IC50 [4] was > 122 µM (inactive) and the AC50 (Cytochrome P450 2D6) was 14.1 µM (inconclusive).
For `CCc1nccn1C(=O)c1cnn2c(C(F)F)cc(-c3ccccc3)nc12`, the IC50 (Prothrombin) was 0.916 µM (active).
In the case of `Cc1ccc(/C=C/C2=Cc3c(sc(NC(=O)CSc4n[nH]c(N)n4)c3C#N)C(C)(C)C2)o1`, the EC50 [5] is reported as 7.52 µM (active) and the EC50 [6] is reported as 7.17 µM (active).
With `Cc1ccc(-n2c(C)cc(C3N=C(N)Nc4nc5ccccc5n43)c2C)c(C)c1` (stereo not given) the EC50 [5] was 11 µM (active) and the EC50 [6] was 12.7 µM (active).
In the case of `Cc1cccc(C)c1NC(=S)N/N=C/c1c(Cl)cccc1Cl`, the IC50 (Prothrombin) is reported as > 50 µM (not active).
For `CCOC(=O)C1CCN(Cc2ccc(O)c3ncccc23)CC1`, the EC50 [7] was 3.26 µM (active), the IC50 [2] was > 50 µM (not active) and the IC50 (Nonstructural protein 1) was 5.25 µM (active). The EC50 [8] was > 60 µM (not active), the AC50 (INS1) was 3.76 µM (active) and the EC50 [9] was 22.2 µM (active). For the same compound, the EC50 [10] was > 38 µM (not active).
In the case of `COC(=O)COc1nc(C)c2c(c1C#N)CC(C)(C)OC2`, the IC50 [3] is reported as > 123 µM (inactive) and the IC50 [4] is reported as > 123 µM (inactive).
For `Fc1ccc(C(c2ccc(F)cc2)N2CCN(C/C=C/c3ccccc3)CC2)cc1` [FLUNARIZINE DIHYDROCHLORIDE], the EC50 [11] was 5.62 µM (active), the EC50 [5] was 5.99 µM (active) and the AC50 [12] was 4.94 µM (active). For the same compound, the EC50 [6] was 5.85 µM (active).
For `CCCOc1ccc(-c2nc(Oc3ccc(OC)cc3)c3ccccc3n2)cc1`, the EC50 (Streptococcus) was > 500 µM (not active) and the EC50 (Streptokinase A) was 179 µM (active).
For `COc1nc(-c2ccccc2)nc2ccccc12`, the EC50 (Streptococcus) was > 500 µM (not active) and the EC50 (Streptokinase A) was 75.4 µM (active).
